# Test results from the supplement of paper PMC10307832.
# What was measured:
# Test in all cases: relative viability (nuclei count vs DMSO), 5 days (fraction); higher = more cells survive
# [1] = compound: CCOC(=O)CCNc1cc(N2CCc3ccccc3CC2)nc(-c2ccccn2)n1 [GSK-J4] + Cc1nc(Nc2ncc(C(=O)Nc3c(C)cccc3Cl)s2)cc(N2CCN(CCO)CC2)n1 [Dasatinib] (partner 0.075 µM)
# Outline: (§1)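 Relative viability was taken as the ratio of nuclei in treated wells to nuclei in vehicle wells. Lung cancer cell lines in 1536-well plates received compounds by pin tool one day after seeding, either one drug alone or a fixed anchor-drug dose plus five library-drug doses (not always all listed) in √10 steps. Nuclei were counted on 4× images after 5 days of treatment, and values are medians of duplicate plates.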
# [2] = compound: CN1CCC(CC1)OC2=CC(=C(C=C2)NC3=NC=C4C(=N3)N(C(=O)N4C)C5CCCC5)OC [AZ3146] + CC(C)C[C@H](NC(=O)[C@H](Cc1ccccc1)NC(=O)c1cnccn1)B(O)O [Bortezomib] (partner 0.002 µM)
# Outline: as §1
# [3] = compound: CN1CCC(CC1)OC2=CC(=C(C=C2)NC3=NC=C4C(=N3)N(C(=O)N4C)C5CCCC5)OC [AZ3146] + Cc1cc(Nc2cc(N3CCN(C)CC3)nc(Sc3ccc(NC(=O)C4CC4)cc3)n2)n[nH]1 [Tozasertib] (partner 0.1 µM)
# Outline: as §1
# [4] = compound: CN1CCC(CC1)OC2=CC(=C(C=C2)NC3=NC=C4C(=N3)N(C(=O)N4C)C5CCCC5)OC [AZ3146] + Nc1nc2[nH]cc(CCc3ccc(C(=O)N[C@@H](CCC(=O)O)C(=O)O)cc3)c2c(=O)[nH]1 [Pemetrexed] (partner 0.2 µM)
# Outline: as §1
Cell Line,relative viability ([1]; first compound 0.5 µM),relative viability ([1]; first compound 1.581 µM),relative viability ([1]; first compound 5 µM),relative viability ([1]; first compound 15.81 µM),relative viability ([1]; first compound 50 µM),relative viability ([2]; first compound 0.08 µM),relative viability ([2]; first compound 0.253 µM),relative viability ([2]; first compound 0.8 µM),relative viability ([2]; first compound 2.53 µM),relative viability ([2]; first compound 8 µM),relative viability ([3]; first compound 0.08 µM),relative viability ([3]; first compound 0.253 µM),relative viability ([3]; first compound 0.8 µM),relative viability ([3]; first compound 2.53 µM),relative viability ([3]; first compound 8 µM),relative viability ([4]; first compound 0.08 µM),relative viability ([4]; first compound 0.253 µM),relative viability ([4]; first compound 0.8 µM),relative viability ([4]; first compound 2.53 µM),relative viability ([4]; first compound 8 µM)
201T,0.576,0.6,0.639,0.391,0.348,1.1,1.07,1.11,1.16,1.12,0.612,0.858,0.837,0.651,0.473,0.275,0.328,0.32,0.331,0.303
A-427,0.609,,0.363,0.655,0.274,0.995,1.06,0.94,1.07,0.875,0.2,0.191,0.157,0.19,0.205,0.898,0.923,0.976,0.926,0.766
ABC-1,0.47,0.546,0.465,0.598,0.297,0.28,0.398,0.247,0.239,0.356,0.173,0.178,0.181,0.135,0.2,,,,,
BEN,0.398,0.362,,0.304,0.284,,0.588,0.752,0.762,0.726,0.402,0.509,0.493,0.512,0.406,,0.641,0.651,0.75,0.8
CAL-12T,0.431,0.477,0.465,0.405,0.335,1.28,,0.897,1.08,0.644,0.263,0.3,0.209,0.247,0.235,1.1,1.15,1.29,1.33,1.13
COR-L23,0.477,0.393,,0.409,0.413,0.912,1.17,0.991,0.984,0.886,0.193,0.222,0.161,0.144,0.173,0.195,0.196,0.215,0.208,0.195
COR-L 105,0.338,0.38,0.276,0.315,0.326,0.677,0.896,0.78,0.554,0.294,0.409,0.335,0.304,0.293,0.309,1.19,1.22,0.962,0.645,0.799
Calu-6,,,,,,0.975,1.08,0.999,0.938,0.57,,,,,,,,,,
ChaGo-K-1,0.618,0.501,0.461,0.592,0.518,0.93,0.837,0.932,0.961,0.738,0.192,0.229,0.22,0.235,0.206,0.562,0.248,0.254,0.258,0.248
